Source: patent publication US10131652B2, “Pyrimidinyloxy benzene derivatives as herbicides” (E. I. DU PONT DE NEMOURS AND COMPANY, priority 2014, dated 2018)

Legend:
Format in all cases: in vivo
[1] = tested on: wheat (Triticum aestivum); assay: Test B pre-/postemergence plant response; conditions: Postemergence, 1000 g ai/ha; 0 to 100 scale (0 no effect, 100 complete control)
Outline: (§1)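 Steps: plant seeds in loam soil–sand mix; spray soil preemergence, and in parallel spray 2–10 cm one- to two-leaf plants postemergence; hold ~10 days in greenhouse; visually rate injury against untreated controls (0 = no effect, 100 = complete control).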

[2] = tested on: giant foxtail (Setaria faberii); assay: Test B pre-/postemergence plant response; conditions: 1000 g ai/ha, 0 to 100 scale (0 no effect, 100 complete control)
Outline: as §1

[3] = tested on: barnyardgrass (Echinochloa crus-galli); assay: Test B pre-/postemergence plant response; conditions: 1000 g ai/ha, 0 to 100 scale (0 no effect, 100 complete control)
Outline: as §1

[4] = tested on: pigweed (Amaranthus retroflexus); assay: Test B pre-/postemergence plant response; conditions: 1000 g ai/ha, 0 to 100 scale (0 no effect, 100 complete control)
Outline: as §1

[5] = tested on: corn (Zea mays); assay: Test B pre-/postemergence plant response; conditions: Postemergence, 1000 g ai/ha; 0 to 100 scale (0 no effect, 100 complete control)
Outline: as §1

[6] = tested on: galium (catchweed bedstraw, Galium aparine); assay: Test D pre-/postemergence plant response; conditions: Postemergence; for Plant response rating, Galium: scale 0 to 100, 0 no effect, 100 complete control
Outline: (§2)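 Each compound, in non-phytotoxic solvent with surfactant, was sprayed onto soil right after sowing or onto young plants 2 to 18 cm tall. After 13 to 15 days under greenhouse conditions, effects were judged visually against controls on a 0 (no effect) to 100 (complete control) scale.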

[7] = tested on: giant foxtail (Setaria faberii); assay: Test D pre-/postemergence plant response; conditions: Postemergence; for Plant response rating, Foxtail, Giant: scale 0 to 100, 0 no effect, 100 complete control
Outline: as §2

[8] = tested on: barnyardgrass (Echinochloa crus-galli); assay: Test D pre-/postemergence plant response; conditions: Postemergence; for Plant response rating, Barnyardgrass: scale 0 to 100, 0 no effect, 100 complete control
Outline: as §2

[9] = tested on: lambsquarters (Chenopodium album); assay: Test D pre-/postemergence plant response; conditions: Postemergence
Outline: as §2

[10] = tested on: waterhemp (common waterhemp, Amaranthus rudis); assay: Test D pre-/postemergence plant response; conditions: Postemergence
Outline: as §2

[11] = tested on: blackgrass (Alopecurus myosuroides); assay: Test D pre-/postemergence plant response; conditions: Postemergence; for Plant response rating, Blackgrass: scale 0 to 100, 0 no effect, 100 complete control
Outline: as §2

[12] = tested on: morningglory (Ipomoea coccinea); assay: Test D pre-/postemergence plant response; conditions: Postemergence
Outline: as §2

[13] = tested on: Italian ryegrass (Lolium multiflorum); assay: Test D pre-/postemergence plant response; conditions: Postemergence
Outline: as §2

[14] = tested on: pigweed (Amaranthus retroflexus); assay: Test D pre-/postemergence plant response; conditions: Postemergence
Outline: as §2

[15] = tested on: ragweed (common ragweed, Ambrosia elatior); assay: Test D pre-/postemergence plant response; conditions: Postemergence
Outline: as §2

[16] = tested on: corn (Zea mays); assay: Test D pre-/postemergence plant response; conditions: Postemergence; for Plant response rating, Corn: scale 0 to 100, 0 no effect, 100 complete control
Outline: as §2

[17] = 31 g ai/ha, scale 0 to 100 (0 no effect, 100 complete control)
[18] = 62 g ai/ha, scale 0 to 100, 0 no effect, 100 complete control
[19] = 125 g ai/ha, scale 0 to 100, 0 no effect, 100 complete control

## Clc1cnc(Oc2ccccc2-c2cc(Cl)sn2)nc1 [Compound 192]
[1]
  Plant response rating, Wheat: 30
[2]; Postemergence
  Plant response rating, Foxtail, Giant: 90
[2]; Preemergence
  Plant response rating, Foxtail, Giant: 100
[3]; Postemergence
  Plant response rating, Barnyardgrass: 100
[3]; Preemergence
  Plant response rating, Barnyardgrass: 100
[4]; Postemergence
  Plant response rating, Pigweed: 100
[4]; Preemergence
  Plant response rating, Pigweed: 100
[5]
  Plant response rating, Corn: 30
[6]; 16 g ai/ha
  Plant response rating (scale 0 to 100), Galium: 35
[6]; [17]
  Galium plant response rating: 50
[6]; 62 g ai/ha
  Plant response rating, Galium: 50
[6]; 125 g ai/ha
  Plant response rating, Galium: 50
[7]; 16 g ai/ha
  Plant response rating (scale 0 to 100), Foxtail, Giant: 10
[7]; [17]
  Foxtail, Giant plant response rating: 25
[7]; 62 g ai/ha
  Plant response rating, Foxtail, Giant: 25
[7]; 125 g ai/ha
  Plant response rating, Foxtail, Giant: 15
[8]; 16 g ai/ha
  Plant response rating (scale 0 to 100), Barnyardgrass: 5
[8]; [17]
  Barnyardgrass plant response rating: 5
[8]; 62 g ai/ha
  Plant response rating, Barnyardgrass: 5
[8]; 125 g ai/ha
  Plant response rating, Barnyardgrass: 5
[9]; 16 g ai/ha
  Plant response rating (scale 0 to 100), Lambsquarters: 35
[9]; [17]
  Lambsquarters plant response rating: 50
[9]; [18]
  Lambsquarters plant response rating: 40
[9]; [19]
  Plant response rating, Lambsquarters: 75
[10]; 16 g ai/ha
  Plant response rating (scale 0 to 100), Waterhemp: 20
[10]; [17]
  Waterhemp plant response rating: 40
[10]; [18]
  Waterhemp plant response rating: 55
[10]; [19]
  Plant response rating, Waterhemp: 70
[11]; 16 g ai/ha
  Plant response rating (scale 0 to 100), Blackgrass: 0
[11]; [17]
  Blackgrass plant response rating: 0
[11]; 62 g ai/ha
  Plant response rating, Blackgrass: 0
[11]; 125 g ai/ha
  Plant response rating, Blackgrass: 5
[12]; 16 g ai/ha
  Plant response rating (scale 0 to 100), Morningglory: 0
[12]; [17]
  Morningglory plant response rating: 0
[12]; [18]
  Morningglory plant response rating: 10
[12]; [19]
  Plant response rating, Morningglory: 45
[13]; 16 g ai/ha
  Plant response rating (scale 0 to 100), Ryegrass, Italian: 0
[13]; [17]
  Ryegrass, Italian plant response rating: 0
[13]; [18]
  Ryegrass, Italian plant response rating: 0
[13]; [19]
  Plant response rating, Ryegrass, Italian: 0
[14]; 16 g ai/ha
  Plant response rating (scale 0 to 100), Pigweed: 15
[14]; [17]
  Pigweed plant response rating: 20
[14]; [18]
  Pigweed plant response rating: 55
[14]; [19]
  Plant response rating, Pigweed: 55
[15]; 16 g ai/ha
  Plant response rating (scale 0 to 100), Ragweed: 0
[15]; [17]
  Ragweed plant response rating: 5
[15]; [18]
  Ragweed plant response rating: 15
[15]; [19]
  Plant response rating, Ragweed: 45
[16]; 16 g ai/ha
  Plant response rating (scale 0 to 100), Corn: 0
[16]; [17]
  Corn plant response rating: 0
[16]; 62 g ai/ha
  Plant response rating, Corn: 5
[16]; 125 g ai/ha
  Plant response rating, Corn: 10
